Assays:
Test in all cases: Cell proliferation WST-1 assay, single dose (Example 4)
Type in all cases: cell-based
Settings in all cases: 100 μM, 48 hours
A375 melanoma cells = system: A375 melanoma cells
Procedure: (§1) In addition, compounds were tested in RPMI-7951 cells, which also contain mutated BRaf and are resistant to BRaf inhibitors due to the overexpression of MAP3K8 (the gene encoding COT/Tp12) that provides an alternative mechanism to indirectly or directly activate ERK proteins. […] For comparison, HeLa cervical carcinoma and Jurkat T-cell leukemia cells, which are p53 defective cancer cell lines but contain no known activating mutations in the ERK pathway, were studied. […] Cell proliferation was evaluated by water soluble tetrazolium-1 (WST-1) assay as previously described. Briefly, cells (˜5000/well) were seeded in 96 well plates, allowed to recover for 16-20 hours, and then treated with the indicated test compound for 48 hours. After incubation, WST-1 reagent was added and absorbance was read at 450 nm with background subtraction taken at 650 nm. Values were normalized to the control (DMSO only treated) cells.

HL-60 leukemic cells = system: HL-60 leukemic cells
Procedure: as §1

[1] = system: HeLa cervical carcinoma cells
Procedure: as §1

[2] = system: Jurkat T-cell leukemia cells
Procedure: as §1

RPMI-7951 melanoma cells = system: RPMI-7951 melanoma cells
Procedure: as §1

SK-MEL-28 melanoma cells = system: SK-MEL-28 melanoma cells
Procedure: as §1

Structure (SMILES) | Cell Viability (% of Vehicle) A375 (A375 melanoma cells) | Cell Viability (% of Vehicle) HL-60 (HL-60 leukemic cells) | Cell Viability (% of Vehicle) HeLa [1] | Cell Viability (% of Vehicle) Jurkat [2] | Cell Viability (% of Vehicle) RPMI-7951 (RPMI-7951 melanoma cells) | Cell Viability (% of Vehicle) SK-MEL-28 (SK-MEL-28 melanoma cells)
CCOc1ccc(/C=C2\SC(=O)N(CCNC(C)=O)C2=O)cc1 [Compound 25a, (Z)—N-(2-(5-(4-ethoxybenzylidene)-2,4-dioxothiazolidin-3-yl)ethyl)acetamide] | 121 ± 4 % of Vehicle | 106 ± 23 % of Vehicle | 100 ± 11 % of Vehicle | 105 ± 8 % of Vehicle | 124 ± 5 % of Vehicle | 105 ± 2 % of Vehicle
CCOc1ccc(/C=C2\SC(=O)N(CCNC(=O)C(F)(F)F)C2=O)cc1 [Compound 25b, (Z)—N-(2-(5-(4-ethoxybenzylidene)-2,4-dioxothiazolidin-3-yl)ethyl)-2,2,2-trifluoroacetamide] | 118 ± 4 % of Vehicle | 101 ± 23 % of Vehicle | 98 ± 11 % of Vehicle | 103 ± 6 % of Vehicle | 127 ± 3 % of Vehicle | 105 ± 2 % of Vehicle
CCOc1ccc(/C=C2\SC(=O)N(CCNC(=O)OC(C)(C)C)C2=O)cc1 [Compound 25c, (Z)-tert-butyl (2-(5-(4-ethoxybenzylidene)-2,4-dioxothiazolidin-3-yl)ethyl)carbamate] | 84 ± 2 % of Vehicle | 31 ± 5 % of Vehicle | 81 ± 1 % of Vehicle | 92 ± 7 % of Vehicle | 62 ± 7 % of Vehicle | 73 ± 1 % of Vehicle
CCOc1ccc(/C=C2\SC(=O)N(CCNC(=O)c3ccc(C#N)cc3)C2=O)cc1 [Compound 25d, (Z)-4-cyano-N-(2-(5-(4-ethoxybenzylidene)-2,4-dioxothiazolidin-3-yl)ethyl)benzamide] | 118 ± 3 % of Vehicle | 101 ± 12 % of Vehicle | 99 ± 9 % of Vehicle | 102 ± 7 % of Vehicle | 122 ± 10 % of Vehicle | 103 ± 2 % of Vehicle
CCOc1ccc(/C=C2\SC(=O)N(CCNC(=O)OC)C2=O)cc1 [Compound 26a, (Z)-methyl (2-(5-(4-ethoxybenzylidene)-2,4-dioxothiazolidin-3-yl)ethyl)carbamate] | 96 ± 4 % of Vehicle | 104 ± 31 % of Vehicle | 84 ± 4 % of Vehicle | 97 ± 7 % of Vehicle | 102 ± 4 % of Vehicle | 88 ± 3 % of Vehicle
CCOc1ccc(/C=C2\SC(=O)N(CCNC(=O)OC(C)(C)C)C2=O)cc1 [Compound 26b, (Z)-tert-butyl (2-(5-(4-ethoxybenzylidene)-2,4-dioxothiazolidin-3-yl)ethyl)carbamate] | 88 ± 3 % of Vehicle | 95 ± 21 % of Vehicle | 88 ± 5 % of Vehicle | 111 ± 9 % of Vehicle | 67 ± 4 % of Vehicle | 83 ± 5 % of Vehicle
CCOc1ccc(/C=C2\SC(=O)N(CCNC(=O)OCC(C)C)C2=O)cc1 [Compound 26c, (Z)-isobutyl (2-(5-(4-ethoxybenzylidene)-2,4-dioxothiazolidin-3-yl)ethyl)carbamate] | 102 ± 4 % of Vehicle | 80 ± 28 % of Vehicle | 95 ± 3 % of Vehicle | 110 ± 4 % of Vehicle | 75 ± 12 % of Vehicle | 94 ± 1 % of Vehicle
CCOc1ccc(/C=C2\SC(=O)N(CCNC(=O)OCc3ccccc3)C2=O)cc1 [Compound 26d, (Z)-benzyl (2-(5-(4-ethoxybenzylidene)-2,4-dioxothiazolidin-3-yl)ethyl)carbamate] | 103 ± 3 % of Vehicle | 85 ± 27 % of Vehicle | 98 ± 6 % of Vehicle | 112 ± 5 % of Vehicle | 54 ± 6 % of Vehicle | 97 ± 1 % of Vehicle
CCOc1ccc(/C=C2\SC(=O)N(CCNC(=O)OCC3c4ccccc4-c4ccccc43)C2=O)cc1 [Compound 26e, (Z)-(9H-fluoren-9-yl)methyl (2-(5-(4-ethoxybenzylidene)-2,4-dioxothiazolidin-3-yl)ethyl)carbamate] | 43 ± 3 % of Vehicle | 103 ± 13 % of Vehicle | 85 ± 4 % of Vehicle | 139 ± 14 % of Vehicle | 27 ± 3 % of Vehicle | 29 ± 7 % of Vehicle
CCOc1ccc(/C=C2\SC(=O)N(CCNS(C)(=O)=O)C2=O)cc1 [Compound 27a, (Z)—N-(2-(5-(4-ethoxybenzylidene)-2,4-dioxothiazolidin-3-yl)ethyl)methanesulfonamide] | 94 ± 2 % of Vehicle | 82 ± 44 % of Vehicle | 82 ± 1 % of Vehicle | 85 ± 3 % of Vehicle | 68 ± 3 % of Vehicle | 87 ± 2 % of Vehicle
CCOc1ccc(/C=C2\SC(=O)N(CCNS(=O)(=O)c3ccc(C#N)cc3)C2=O)cc1 [Compound 27b, (Z)-4-cyano-N-(2-(5-(4-ethoxybenzylidene)-2,4-dioxothiazolidin-3-yl)ethyl)benzenesulfonamide] | 109 ± 6 % of Vehicle | 101 ± 52 % of Vehicle | 90 ± 4 % of Vehicle | 103 ± 3 % of Vehicle | 99 ± 4 % of Vehicle | 95 ± 3 % of Vehicle
CCOc1ccc(/C=C2\SC(=O)N(CCNS(=O)(=O)c3cn(C)cn3)C2=O)cc1 [Compound 27c, (Z)—N-(2-(5-(4-ethoxybenzylidene)-2,4-dioxothiazolidin-3-yl)ethyl)-1-methyl-1H-imidazole-4-sulfonamide] | 107 ± 2 % of Vehicle | 51 ± 31 % of Vehicle | 91 ± 5 % of Vehicle | 97 ± 4 % of Vehicle | 118 ± 6 % of Vehicle | 92 ± 5 % of Vehicle
CCCN1C(=O)S/C(=C\c2ccc(OCC)cc2)C1=O [Compound 28d, (Z)-5-(4-ethoxybenzylidene)-3-propylthiazolidine-2,4-dione] | 119 ± 5 % of Vehicle | 80 ± 26 % of Vehicle | 96 ± 4 % of Vehicle | 101 ± 5 % of Vehicle | 116 ± 10 % of Vehicle | 101 ± 3 % of Vehicle
CCOc1ccc(/C=C2\SC(=O)N(CCO)C2=O)cc1 [Compound 28e, (Z)-5-(4-ethoxybenzylidene)-3-(2-hydroxyethyl)thiazolidine-2,4-dione] | 116 ± 4 % of Vehicle | 91 ± 19 % of Vehicle | 91 ± 2 % of Vehicle | 101 ± 4 % of Vehicle | 137 ± 8 % of Vehicle | 91 ± 1 % of Vehicle
CCOc1ccc(/C=C2\SC(=O)N(CCCl)C2=O)cc1 [Compound 28f, (Z)-3-(2-chloroethyl)-5-(4-ethoxybenzylidene)thiazolidine-2,4-dione] | 113 ± 9 % of Vehicle | 99 ± 14 % of Vehicle | 87 ± 4 % of Vehicle | 99 ± 5 % of Vehicle | 128 ± 3 % of Vehicle | 97 ± 3 % of Vehicle
CCOc1ccc(/C=C2\SC(=O)N(CC(=O)OC(C)(C)C)C2=O)cc1 [Compound 28g, (Z)-tert-butyl 2-(5-(4-ethoxybenzylidene)-2,4-dioxothiazolidin-3-yl)acetate] | 117 ± 7 % of Vehicle | 95 ± 18 % of Vehicle | 88 ± 7 % of Vehicle | 108 ± 3 % of Vehicle | 110 ± 3 % of Vehicle | 101 ± 2 % of Vehicle
CCOc1ccc(/C=C2\SC(=O)N(CC(=O)O)C2=O)cc1 [Compound 28h, (Z)-2-(5-(4-ethoxybenzylidene)-2,4-dioxothiazolidin-3-yl)acetic acid] | 122 ± 6 % of Vehicle | 97 ± 27 % of Vehicle | 104 ± 3 % of Vehicle | 108 ± 3 % of Vehicle | 133 ± 9 % of Vehicle | 106 ± 1 % of Vehicle
